In US20230143486A1, “METHODS OF GENERATING MIDBRAIN DOPAMINE NEURONS, MIDBRAIN NEURONS AND USES THEREOF” (MEMORIAL SLOAN-KETTERING CANCER CENTER, priority 2020, published 2023):

How the values were obtained:
ALK2, ALK3, and ALK6 = conditions: cited from earlier work
hPSC-derived mDA neurons = experiment: Optimizing WNT inhibition in mDA neuron differentiation (qRT-PCR and ICC); format: cell-based, human
From the text: This example is designed to optimize the temporal window and concentration of the WNT treatment, and to test whether reactivation of non-canonical signaling is required for optimal levels of mDA neuron differentiation or maturation. […] IWP2 inhibits both non-canonical signaling and canonical signaling. The expressions of PITX3, DAT, and VMAT2 are quantified by qRT-PCR and immunocytochemistry (ICC). […] Optimized conditions are validated across hPSC lines (3 hESC and 3 iPSC lines; >3 independent differentiations each) (Zimmer, et al. Proceedings of the National Academy of Sciences of the United States of America 115, […]-[…] (2018)) including male and female lines.

[1] = tested on: differentiated mDA cells from hPSC and hiPSC; experiment: mRNA expression of marker genes in differentiated mDA cells (Wnt-boost protocol with or without FGF18 and/or IWP2); format: cell-based, human
Experimental: hPSC and hiPSC were used for the differentiation methods. First, the effect of Wnt signaling on ALDH1A1 induction in mDA cells differentiated with different protocols was evaluated. The mRNA expression levels of FOXA2, LMX1A, EN1, WNT1, OTX2, ALDH1A1 and PAX6 were evaluated in day 16-differentiated mDA cells produced using Wnt-boost, Wnt-boost+IWP2 (day 10-day 16), and Wnt-boost+IWP2 (day 12-day 16) protocols, with or without FGF18 (day 12-16) (FIG. 1).
SMA mRNA expression level was not detectable. The Wnt-boost protocol in combination with FGF18 and IWP2 generated optimal A/P and DN patterned precursors, where more than 90% cells are FOXA2/EN1 double positive (FIG. 2A). […] Furthermore, The mRNA expression levels of FOXA2, LMX1A, OTX2, EN1, ALDH1A1, BARHL2, BARHL1, PAX6, ALDH2, and WNT1 were evaluated at day 16 in differentiated mDA cells produced using Wnt-boost, Wnt-boost+IWP2 (day 12-day 16) protocols, with or without FGF18 (FIG. 3). The effect of IWP2 on the expression of marker genes in the differentiated cells was determined. […] The present disclosure observed the presence of very high quadrupole positive cells at day 16 (FOXA2/LMX1A, OTX2/EN1). […] Additionally, the expression of ALDH1A1, WNT1, PITX3, DAT, DDC, VMTA2 were increased by the addition of IWP2 and FGF18, whereas IWP2 lowered the expression of Ki67, SMA and SIX1. Immuno-staining images of day 60-differentiated cells were collected showing the expression of FOXA2, TH, and MAP2 (FIG. 14A), and EN1 and TH (FIG. 14B).
The mRNA expression levels of FOXA2, LMX1A, OTX2, EN1, ALDH1A1, WNT1, BARHL1, PAX6, OTX2, and NKX2-2 were evaluated at day 16 in differentiated mDA cells produced using Wnt-boost, Wnt-boost+IWP2 (day 12-day 16) protocols, with or without FGF18. The present disclosure discovered that IWP2 exposure led to increased ALDH1A1 as well as high endogenous WNT1 expression at day 16 both in Wnt Boost and Wnt Boost+FGF18 conditions. Moreover, IWP2 exposure lowered PAX6 and NKX2-2 expression (FIG. 12).
The mRNA expression of marker genes in sorted day 28-differentiated CD49^weak/CD184^weak cells and CD49^weak/CD184^strong cells were measured (FIGS. 21 and 22).

rodent GSK3β homologs = conditions: cited from earlier work
[2] = day 16, both Wnt Boost and Wnt Boost+FGF18 conditions, IWP2 day 12-day 16

c1ccc2c(-c3cnn4cc(-c5ccc(N6CCNCC6)cc5)cnc34)ccnc2c1 [LDN193189, 4-(6-(4-(piperazin-1-yl)phenyl)pyrazolo[1,5-a]pyrimidin-3-yl)quinoline]
inhibitor of ALK2, ALK3, and ALK6 (ALK2, ALK3, and ALK6): highly potent

Oc1nc(-c2ccc(C(F)(F)F)cc2)nc2c1CSCC2 [XAV939]
inhibition of canonical signaling alone: results comparable to the IWP2 treatment (hPSC-derived mDA neurons; preliminary data (not shown)): might not be sufficient

Cc1ccc2nc(NC(=O)CSc3nc4c(c(=O)n3-c3ccccc3)SCC4)sc2c1 [IWP2]
effect on the expression of EN1 or the emergence of contaminating markers (SIX1 and SMA) (hPSC-derived mDA neurons): does not negatively affect
expression of Ki67, SMA and SIX1 ([1]; Wnt-boost protocol, IWP2 day 12 to day 16): lowered
expression of ALDH1A1 ([1]; continued exposure until day 30, day 30-differentiated cells): further induced
PAX6 and NKX2-2 expression ([1]; day 16, IWP2 day 12-day 16): lowered
ALDH1A1 expression [1, 2]: increased
endogenous WNT1 expression [1, 2]: high
expression of ALDH1A1 ([1]; exposure from day 12 to day 25, sorted day 28-differentiated cells, confirmed by immunofluorescent staining): further induced

Cc1c[nH]c(-c2cnc(NCCNc3ccc(C#N)cn3)nc2-c2ccc(Cl)cc2Cl)n1 [CHIR99021, 6-(2-(4-(2,4-dichlorophenyl)-5-(4-methyl-1H-imidazol-2-yl)pyrimidin-2-ylamino)ethylamino)nicotinonitrile]
IC50 values against rodent GSK3β homologs (rodent GSK3β homologs): nanomolar

B1: FGF18: FGF activator, member of the FGF8 subfamily (protein, UniProt O76093 28-207, looked up)
Fibroblast growth factor 18: EENVDFRIHVENQTRARDDVSRKQLRLYQLYSRTSGKHIQVLGRRISARGEDGDKYAQLLVETDTFGSQVRIKGKETEFYLCMNRKGKLVGKPDGTSKECVFIEKVLENNYTALMSAKYSGWYVGFTKKGRPRKGPKTRENQQDVHFMKRYPKGQPELQKPFKYTTVTKRSRRIRPTHPA
expression of EN1 ([1]; Wnt-boost protocol, FGF18 day 12 to day 16): high expression
